Experimental data: the supplement of paper PMC4862054
Several values for one entry are separate records, joined by “and”; a condition that tells them apart may be missing. Equal entries are not always repeated.

How the values were obtained:
Details in all cases: incubation time: 72 h
[1] = tested on: Hs578T; assay: normalised viability (% of control), CellTiter-Blue; higher = more viable cells (about 100 = DMSO control)
Outline: (§1)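 Each entry is normalised viability at a single listed concentration within a series. It comes from breast cancer cell lines incubated 72 h with compound in 384-well plates, then measured with CellTiter-Blue fluorescence at 560/590 nm. Every plate was normalised between vehicle (100) and a positive kill control (0).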

[2] = tested on: BT-549; assay: as above
Outline: as §1

[3] = tested on: MDA-MB-231; assay: as above
Outline: as §1

[4] = tested on: DU-4475; assay: as above
Outline: as §1

[5] = tested on: CAL-148; assay: as above
Outline: as §1

[6] = tested on: MDA-MB-468; assay: as above
Outline: as §1

[7] = tested on: MDA-MB-453; assay: as above
Outline: as §1

[8] = tested on: CAL-120; assay: as above
Outline: as §1

[9] = tested on: MFM-223; assay: as above
Outline: as §1

[10] = tested on: HCC1937; assay: drug sensitivity score (DSS), CellTox Green (DSS (AUC-based score)); higher = stronger drug effect (viability inhibition or cytotoxicity); extreme values may be limits of the assay
Outline: (§2)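 Compound was dispensed into 384-well plates at 5 concentrations in 10-fold steps spanning a 10,000-fold range chosen for each compound, and 20 µl of breast cancer cell suspension was added before 72 h of incubation. CellTox Green fluorescence was read at 485/520 nm, followed by CellTiter-Glo luminescence after 10 min at room temperature. Values on each plate were normalised to 0.1 % DMSO and a positive kill control. The drug sensitivity score came from the area under the fitted dose-response curve.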

[11] = tested on: MCF-10A; assay: as above
Outline: as §2

[12] = tested on: HDQ-P1; assay: as above
Outline: as §2

[13] = tested on: Hs578T; assay: as above
Outline: as §2

[14] = tested on: BT-549; assay: as above
Outline: as §2

[15] = tested on: MDA-MB-231; assay: as above
Outline: as §2

[16] = tested on: MDA-MB-436; assay: as above
Outline: as §2

[17] = tested on: DU-4475; assay: as above
Outline: as §2

[18] = tested on: BT-474; assay: as above
Outline: as §2

[19] = tested on: CAL-148; assay: as above
Outline: as §2

[20] = tested on: MDA-MB-468; assay: as above
Outline: as §2

[21] = tested on: HCC1599; assay: as above
Outline: as §2

[22] = tested on: MDA-MB-453; assay: as above
Outline: as §2

[23] = tested on: HCC1143; assay: as above
Outline: as §2

[24] = tested on: CAL-85-1; assay: as above
Outline: as §2

[25] = tested on: CAL-51; assay: as above
Outline: as §2

CC(=O)[C@]1(O)Cc2c(O)c3c(c(O)c2[C@@H](O[C@H]2C[C@H](N)[C@H](O)[C@H](C)O2)C1)C(=O)c1ccccc1C3=O [Idarubicin]
normalised viability ([1]; 1 nM): 107% | normalised viability ([1]; 100 nM): 57.1% | normalised viability ([1]; 1000 nM): 5.7% | normalised viability ([2]; 1 nM): 108% | normalised viability ([2]; 100 nM): 50% | normalised viability ([2]; 1000 nM): 9.06% | normalised viability ([3]; 1 nM): 101% | normalised viability ([3]; 100 nM): 41.5% | normalised viability ([3]; 1000 nM): 8.68% | normalised viability ([4]; 0.3 nM): 89.8% | normalised viability ([4]; 3 nM): 90.2% | normalised viability ([4]; 10 nM): 55.7% | normalised viability ([5]; 0.3 nM): 91.7% | normalised viability ([5]; 3 nM): 93.2% | normalised viability ([5]; 10 nM): 63.2% | normalised viability ([6]; 1 nM): 100% | normalised viability ([6]; 100 nM): 41.2% | normalised viability ([6]; 1000 nM): 4.98% | normalised viability ([7]; 0.3 nM): 108% | normalised viability ([7]; 3 nM): 98.4% | normalised viability ([7]; 10 nM): 100% | normalised viability ([8]; 1 nM): 108% | normalised viability ([8]; 100 nM): 40.7% | normalised viability ([8]; 1000 nM): 11.1% | normalised viability ([9]; 1 nM): 107% | normalised viability ([9]; 100 nM): 92.5% | normalised viability ([9]; 1000 nM): 11.5% | drug sensitivity score [10]: 0 | drug sensitivity score [11]: 1.59 | drug sensitivity score [12]: 0 | drug sensitivity score [13]: 0 | drug sensitivity score [14]: 0 | drug sensitivity score [15]: 0 | drug sensitivity score [16]: 0 | drug sensitivity score [17]: 0.488 | drug sensitivity score [18]: 4.95 | drug sensitivity score [19]: 12.7 | drug sensitivity score [20]: 10.5 | drug sensitivity score [21]: 0 | drug sensitivity score [22]: 0 | drug sensitivity score [23]: 0 | drug sensitivity score [24]: 8.04 | drug sensitivity score [25]: 9.49

O=C(CCCCCCC(=O)Nc1ccccc1)NO [Vorinostat]
normalised viability ([1]; 10 nM): 111% and 118% | normalised viability ([1]; 1000 nM): 88.4% and 87% | normalised viability ([1]; 10000 nM): 12.3% and 11.5% | normalised viability ([2]; 10 nM): 108% and 102% | normalised viability ([2]; 1000 nM): 89.2% and 82.3% | normalised viability ([2]; 10000 nM): 48% and 33.2% | normalised viability ([3]; 10 nM): 99.4% and 89.5% | normalised viability ([3]; 1000 nM): 88.3% and 84.1% | normalised viability ([3]; 10000 nM): 13.9% and 12.9% | normalised viability ([4]; 3 nM): 108% and 97.7% | normalised viability ([4]; 30 nM): 104% and 99.7% | normalised viability ([4]; 100 nM): 99.1% and 94.5% | normalised viability ([5]; 3 nM): 78% and 95.3% | normalised viability ([5]; 30 nM): 90.2% and 100% | normalised viability ([6]; 10 nM): 105% | normalised viability ([6]; 1000 nM): 80.6% and 76% | normalised viability ([6]; 10000 nM): 32.5% and 40.6% | normalised viability ([7]; 3 nM): 107% and 96.8% | normalised viability ([8]; 10 nM): 92.3% and 99.7% | normalised viability ([8]; 1000 nM): 65.1% and 68.3% | normalised viability ([8]; 10000 nM): 11.5% and 18.7% | normalised viability ([9]; 10 nM): 97.4% and 103% | normalised viability ([9]; 1000 nM): 84% and 74% | normalised viability ([9]; 10000 nM): 19.7% and 18.4% | drug sensitivity score [10]: 0 | drug sensitivity score [11]: 0 | drug sensitivity score [12]: 0 | drug sensitivity score [13]: 4.59 | drug sensitivity score [14]: 0.875 | drug sensitivity score [15]: 8.86 | drug sensitivity score [16]: 0 | drug sensitivity score [17]: 0 | drug sensitivity score [18]: 2.68 | drug sensitivity score [19]: 1.45 | drug sensitivity score [20]: 2.22 | drug sensitivity score [21]: 0 | drug sensitivity score [22]: 0 | drug sensitivity score [23]: 1.23 | drug sensitivity score [24]: 0 | drug sensitivity score [25]: 6.5

O=[N+]([O-])c1ccc2c(c1)S(=O)(=O)C=C2 [Stattic]
drug sensitivity score [10]: 25 | drug sensitivity score [11]: 19.5 | drug sensitivity score [12]: 2.09 | drug sensitivity score [13]: 18.1 | drug sensitivity score [14]: 19.8 | drug sensitivity score [15]: 11.6 | drug sensitivity score [16]: 6.1 | drug sensitivity score [17]: 0 | drug sensitivity score [18]: 15.9 | drug sensitivity score [19]: 9.88 | drug sensitivity score [20]: 19.8 | drug sensitivity score [21]: 0 | drug sensitivity score [22]: 2.97 | drug sensitivity score [23]: 6.3 | drug sensitivity score [24]: 19.7 | drug sensitivity score [25]: 16.9
